# Measured values published in patent US20020042079A1, “METHODS AND AGENTS FOR MEASURING AND CONTROLLING MULTIDRUG RESISTANCE” (priority 1994, published 2002).
# Entries after “also recorded” stand apart in the source; their conditions may differ.
# How the values were obtained:
# MCF-7/ADR cells [1] = experiment: Cell viability assay of Adriamycin sensitivity (Hoechst 33258 DNA content); settings: for effect on sensitivity of drug-resistant cells to Adriamycin: MCF-7/ADR (MCF-7adr) cells, agent co-incubated with adriamycin for 6 hours
# Experimental: After 6 hours, the media was removed, the cells rinsed, and then fed with fresh media not containing drugs. […] Media was aspirated and the wells rinsed with Hanks Balanced Salt Solution (HBSS, phenol red free). The cells were sonicated in hypotonic media (0.1×HBSS) for 30 seconds. […] Calf thymus DNA was used for calibration.
# Cell viability assays: The media was removed 60 hr. after plating the cells and replaced with fresh media supplemented with various concentrations of adriamycin (Calbiochem, CA) and monensin (solubilized in DMF 0.1%) (Sigma, St. Louis). After 6 hr the media was removed, the cells rinsed, and then fed with fresh media not containing drugs. […] Media was aspirated and the wells rinsed with Hanks Balanced Salt Solution (HBSS, phenol red free). The cells were sonicated in hypotonic media (0.1×HBSS) for 30 seconds. […] Calf thymus DNA was used for calibration.
# Cell Viability Assays: Cell viability was assayed by plating cells at ˜1000 cells/well in 24 well plates (Falcon) in DME. […] The cells were fed daily for three days and then cell viability was quantified with two independent techniques: an assay of total DNA and an assay of volume of viable cells. […] Calf thymus DNA was used for calibration.
# After three days cell viability was assayed.
# MCF-7/ADR cells [2] = experiment: Organelle-specific pH measurements with targeted SNARF and FITC probes in living cells; type: cell-based, human
# Experimental: Organelle-specific pH measurements: The pH was measured in selective cellular compartments by targeting ratiometric pH probes to specific organelles. […] Using a Nikon epifluorescence microscope with a intensified CCD camera, the pH probe FITC was excited alternately at 450 nm and 490 nm and emission recorded with a 520/10 bandpass filter. […] In short, to calibrate the pH for the endosomal system, the chamber was perfused with 150 mM sodium buffers at pH of 5, 6 or 7 containing of monensin (20 μM) and nigericin (10 μM) for 5 minutes before recording the fluorescence. For the pH calibrations of cytosol and nucleoplasm, the cells were incubated in 140 mM potassium buffers at pH 6.0, 6.5, 7.0 and 7.5 containing nigericin (20 μM).
# After endocytosis, the transferrin is transported through the endosomes and then recycled back to the surface without passage through the lysosomes.
# pH in the lysosomes: The pH in the lysosomes was assayed both with light and electron microscopy. […] The pH was calibrated as described above. […] The cells were incubated one hour at room temperature, washed with several changes of PBS pH 7.4 containing 50 mM NH4Cl. […] The cells were embedded in LR White in gelatin capsules and baked at 60° C. for 24 hours in a vacuum oven, sectioned and incubated overnight at 4° C. with anti-DNP antibodies in 4% FBS, washed and incubated in gold (10 nm) labeled secondary antibodies for 2 hours. They were then stained and visualized under the electron microscope.
# Cells were plated on polystyrene plates at 50% confluency. Twenty-four to thirty-six hours later, the medium was aspirated and the cells were covered with 50 μl of DME with SNARF-dextran (10 mg/ml). The cells were quickly scraped off the polystyrene and placed in pre-chilled tubes containing 1 ml DME without serum. The cells were harvested (100 g for 5 minutes), washed twice with pre-chilled DME, and plated on Lab-Tek chambers in DME with serum. The cells were allowed to recover for 24 hours prior to examination on a confocal microscope. The pH was calibrated from SNARF fluorescence as described above.
# pH in the nucleus: The nucleoplasmic pH was probed by loading the cytosol with SNARF conjugated to a 10 kD dextran. This dextran is too large to cross cellular membranes, but can enter the nucleoplasm by diffusion across the nuclear pores. Confocal fluorescence microscopy was used to prepare optical sections through the cell allowing the fluorescence intensity of the nucleoplasm and cytoplasm to be quantified. The 10 kD SNARF-dextran was loaded into the cytosol and imaged using the same techniques for the 70 kD SNARF-dextrans (see above).
# MCF-7/ADR cells [3] = experiment: Subcellular distribution of Adriamycin fluorescence (confocal microscopy); type: cell-based, human; settings: MCF-7/ADR, Monensin 5 μM, Bafilomycin A1 500 nM, concanomycin 100 nM, Tamoxifen 10 μM (50 μM in Example 3), verapamil 10 μM, cyclosporin 5 μM
# Experimental: Adriamycin can be excited between 350 nm-550 nm and emits between 400 nm-700 nm.
# Labeling of Cells with Adriamycin: Cells were loaded with Adriamycin (10 μM) added to the perfusion medium. […] For epi-fluorescence, the cells were excited with 450-490 nm filter and emission was monitored with a 510 nm longpass filter.
# MCF-7/ADR cells [4] = experiment: Lysosomal acidification by DAMP immuno-electron microscopy; type: cell-based, human; parameters: dose or concentration left out as unconfirmed; settings: MCF-7/ADR cells treated prior to DAMP
# Experimental: pH in the lysosomes: The pH in the lysosomes was assayed both with light and electron microscopy. Light microscopy: […] Cell Biol., 105:2723-2733 (1987)]. The pH was calibrated as described above. Electron microscopy: The cells were incubated with the weak base DAMP, fixed, probed with an mouse antibody to DNP (cross-reacts with DAMP) and visualized with gold-conjugated anti-mouse antibodies. […] Then DAMP was added to a final concentration of at 70 μM and the cells were incubated for another 45 minutes. The medium was replaced with phosphate buffered saline (PBS), pH 7.4, with 4% paraformaldehyde and 0.75% gluteraldehyde. […] They were then stained and visualized under the electron microscope.
# MCF-7/ADR cells [5] = experiment: Acridine orange labeling of acidic compartments (confocal microscopy); type: cell-based, human; settings: for red-orange acridine orange fluorescence of cytoplasmic organelles after addition of agent: MCF-7/ADR, 30 minutes, Monensin 5 μM, Bafilomycin A1 500 nM, concanomycin 100 nM, Tamoxifen 5 or 10 μM, verapamil 10 μM, cyclosporin A 10 μM
# Experimental: Confocal fluorescence imaging of intracellular pH and acidic compartments: Acridine orange (2 μg/ml media; 4 mg/ml stock in water) was added directly to the chambers and the cells were incubated with the dye at 37° C. for 30 minutes. Cells in the presence of acridine orange were then examined at room temperature with an Insight Bilateral Laser Scanning Confocal Microscope (Meridian Instruments, Okemos, Mich.). […] Optical sections of the fluorescent sample were recorded at 0.5 micron intervals. […] The acetoxymethylester derivative of SNAFL-calcein (15 μg/ml) (Molecular Probes, Eugene, Oreg.) (a radiometric fluorescent probe for pH) was added to both MCF-7 and MCF-7adr cells. The ester linked fluorescent probe enters the cell passively where the esters are hydrolyzed by esterases located in the cytoplasm and intracellular vesicles. The SNAFL-calcein is then ionically trapped within the cytoplasm and vesicular compartments. […] These images were then compared to standard curves that were obtained in the following manner. […] Cells treated with monensin were exposed to the drug (10 μg/ml of media) for 30 minutes at 37° C. prior to labeling with SNAFL-calcein as described above. All cells were examined at room temperature.
# The green and red emissions were collected using two photomultiplier tubes. […] Green emission was next passed through a 530 nm/30 nm bandpass filter and collected by the on-axis photomultiplier tube. Red emission was passed through a 610 nm longpass filter and collected by the 90° side photomultiplier tube.
# Optical sections of the fluorescent samples were recorded at 0.5 micron intervals with a 60×oil immersion objective.
smiles,measurement,setting,value
CC[C@@]1([C@@H]2O[C@@H]([C@H]3O[C@@](O)(CO)[C@H](C)C[C@@H]3C)C[C@@H]2C)CC[C@H]([C@]2(C)CC[C@]3(C[C@H](O)[C@@H](C)[C@@H]([C@@H](C)[C@@H](OC)[C@H](C)C(=O)O)O3)O2)O1 [Monensin],effect on sensitivity of drug-resistant cells to Adriamycin,MCF-7/ADR cells [1],increased the drug sensitivity of the MCF-7adr cells to the level observed for drug-sensitive cells
same,"shift of cytosolic pH, more alkaline","MCF-7/ADR cells [2]; MCF-7/ADR cells, SNARF 70 kD dextran, Tamoxifen at 10 μM",0.2 units
same,Adriamycin distribution after addition of agent,MCF-7/ADR cells [3],Adriamycin is found to accumulate within the nucleus
same,Adriamycin distribution after addition of agent,MCF-7/ADR cells [3]; listed as monensin,redistributed Adriamycin to the nucleoplasm
same,average density of gold particles (anti-DNP labeling of DAMP) per lysosomal area,MCF-7/ADR cells [4],zero
same,red-orange acridine orange fluorescence of cytoplasmic organelles after addition of agent,MCF-7/ADR cells [5],loss of the red-orange fluorescence
same,red-orange acridine orange fluorescence of cytoplasmic organelles after addition of agent,MCF-7/ADR cells [5]; listed as monensin,did not exhibit the red spectral shift within the vesicles
CC/C(=C(\c1ccccc1)c1ccc(OCCN(C)C)cc1)c1ccccc1 [Tamoxifen],cell death,"MCF-7/ADR cells [1]; 1 μM Adriamycin in the presence of 5 μM Tamoxifen, 6 hours exposure, assayed after three days",95%
same,cell viability in the absence of Adriamycin,MCF-7/ADR cells [1]; 5 μM Tamoxifen alone,no decrease in viability; also recorded: little effect on cell viability
same,effect on sensitivity of drug-resistant cells to Adriamycin,MCF-7/ADR cells [1],substantially increased the sensitivity of the cells to Adriamycin
same,effect on sensitivity of drug-resistant cells to Adriamycin,MCF-7/ADR cells [1]; listed as tamoxifen,significantly enhanced sensitivity to adriamycin
same,"change with Tamoxifen, pH Lysosomes SNARF-conjugated dextran",MCF-7/ADR cells [2]; MCF-7/ADR,>+1.1
same,"change with Tamoxifen, pH Recycling endosomes FITC-conjugated transferrin",MCF-7/ADR cells [2]; MCF-7/ADR,+0.5
same,"change with Tamoxifen, pH lysosomes FITC conjugated dextran",MCF-7/ADR cells [2]; MCF-7/ADR,>+1.2
same,pH Cytosol (SNARF 70 kD dextran),MCF-7/ADR cells [2]; MCF-7/ADR + Tamoxifen (10 μM),7.20 ± 0.1
same,pH Lysosomes SNARF-conjugated dextran,MCF-7/ADR cells [2]; MCF-7/ADR + Tamoxifen (10 μM),7.1
same,pH Nucleus (SNARF 10 kD dextran),MCF-7/ADR cells [2]; MCF-7/ADR + Tamoxifen (10 μM),7.20 ± 0.1
same,pH Recycling endosomes FITC-conjugated transferrin,MCF-7/ADR cells [2]; MCF-7/ADR + Tamoxifen (10 μM),6.7 ± 0.2
same,pH lysosomes FITC conjugated dextran,"MCF-7/ADR cells [2]; MCF-7/ADR + Tamoxifen (10 μM), FITC cannot discriminate pH above 6.6",> 6.6
same,pH Recycling endosomes FITC-conjugated transferrin,"MCF-7/ADR cells [2]; MCF-7/ADR + Tamoxifen (10 μM), listed as tamoxifen",6.7
same,Adriamycin distribution after addition of agent,MCF-7/ADR cells [3],the concentration of Adriamycin in the nucleus was substantially increased
same,Adriamycin distribution after addition of agent,MCF-7/ADR cells [3]; listed as tamoxifen,shifts the adriamycin distribution to that observed in the MCF-7 cells; also recorded: shift of Adriamycin from punctate perinuclear compartments
same,average density of gold particles (anti-DNP labeling of DAMP) per lysosomal area,MCF-7/ADR cells [4],2.0 /μm^2
same,red-orange acridine orange fluorescence of cytoplasmic organelles after addition of agent,MCF-7/ADR cells [5],loss of the red-orange cytoplasmic fluorescence
same,red-orange acridine orange fluorescence of cytoplasmic organelles after addition of agent,MCF-7/ADR cells [5]; listed as tamoxifen,steady decrease of the red acridine orange fluorescence
same,acridine orange staining of acidic vesicles after treatment,"MCF-7/ADR cells [5]; MCF-7adr (Examples 2, 3), nigericin 7.5 μM, tamoxifen 50 μM",loss of acridine orange staining within the pericentriolar region
